What was measured:
MT2/293 = experiment: MTT cytotoxicity assay, MT2/293 cells; assay type: cell-based; details: percentage of untreated control cells
Procedure: This assay evaluates the cytotoxic effects of the novel isoquinolone compounds based on the cellular viability under chronic treatments. Viable cells but not dead cells can turn the substrate into a colored product, which yields higher absorbance. […] A low percentage indicates low cytoviability (or high cytotoxicity).
5. Cytotoxicity Test Using MTT Assay
Cells were seeded into clear 96-well plate at an appropriate density in 100 μl growth medium and were allowed to grow overnight. The novel isoquinolone compounds were diluted to desired concentrations using fresh growth medium, and these dilutions were used to replace the growth media in each well. After incubating for 24-96 h, 10 μl of the MTT labeling reagent (Roche) was added to each well and the cells were incubated in a CO2 incubator for 4 h. 100 μl solubilization buffer was then added into each well and incubated overnight for complete solubilization of the purple formazan crystals. […] Each condition was performed in triplicate in every experiment and the results were expressed as % of blank control±SD.

MT1 receptor [1] = target: T1, MT1 receptor (Homo sapiens, UniProt P48039); experiment: Competitive [3H]melatonin binding assay, MT1; parameters: expressed in transfected cells; details: displacement of 1 nM [3H]melatonin, HEK-293 cells; log value, negative; NSB = No significant binding
Procedure: Competitive ligand binding assays were performed to examine the receptor binding characteristics of the novel isoquinolone compounds. The assay measures the ability of the novel isoquinolone compounds to bind and displace the radiolabelled endogenous ligand, [^3H]melatonin. Increasing concentrations of the novel compounds are added to displace the [^3H]melatonin-bound to MT1 or MT2 receptor-expressing cells.
4. Competitive Binding Assay
The ability of compounds to bind to MT1 and/or MT2 receptors is determined using radioligand binding assays. […] 48 hours following transfection, cells are harvested in binding buffer (50 mM Tris-HCl, 2 mM MgCl2, 1 mM EDTA, pH 7.4). 100,000 cells are incubated with 1 nM [^3H] melatonin (specific activity: 83 Ci/mmol; GE Healthcare) and appropriate concentrations (0.1 nM to 1 μM) of unlabelled ligands in a total volume of 100 μl in 96-well plates (PerkinElmer Life And Analytical Sciences, Inc., Boston, Mass.) for 2 hours at room temperature. Reactions are terminated by rapid filtration through a 96-well cell harvester onto 96-well GF/C filter mats. Filters are washed with 500 μl of ice-cold binding buffer, dried and sealed in a polyethylene bag with 3.5 ml of scintillation fluid and counted for tritium in a Microbeta Jet scintillation counter. […] Data are analyzed by nonlinear least-squares regression using GraphPad Prism 3.02.

MT1 receptor [2] = target: T1, MT1 receptor; experiment: CRE-Luc (luciferase reporter gene) assay, MT1; assay type: cell-based; parameters: expressed in transfected cells; details: HEK 293-pCREluc cells with MT1; inhibition of forskolin response
Procedure: The luciferase reporter gene assay offers another way to measure melatonin receptor activation. Cells expressing cAMP-responsive element-driven luciferase reporter gene (293-pCREluc) and either the MT1 or MT2 receptor are treated with forskolin (a substance which stimulates cAMP production as well as the subsequent luciferase gene expression) alone or with a novel isoquinolone compound. As melatonin receptor activation inhibits cAMP production, any suppression in the expression of luciferase leads to a decrease in enzymatic activities and a reduction in the amount of luminescence signal generated.
The luciferase assay, a reporter gene assay, was performed to confirm the ability of the invention to activate the melatonin receptors. Prior to the assay, HEK (human embryonic kidney) 293 cells are stably transfected with cAMP-responsive element-driven luciferase reporter gene (293-pCREluc) and cDNAs encoding MT1 or MT2 receptors. The cells are then exposed to the novel isoquinolone compounds, after which the substrate luciferin is added and the resulting luminescence measured.
Prior to the assay human embryonic kidney (HEK) 293 cells (CRL-1573, ATCC) is maintained at 37° C. in minimum essential medium (MEM) supplemented with 10% fetal bovine serum (FBS), 100 units/ml penicillin and 100 μg/ml streptomycin in a humidified atmosphere containing 5% CO2. Human embryonic kidney 293 cells stably transfected with cAMP-responsive element-driven luciferase reporter gene (293-pCREluc) are established and maintained in growth medium supplemented with 300 μg/ml G418 sulphate.
For luciferase assays, HEK-293 cells stably expressing pCRE-luciferase are seeded at a density of 15,000 cells/well into 96 well plates. Transfection is carried out using Lipofectamine Plus® reagent at 0.2 μl of both Plus and lipofectamine reagents with 50 ng cDNAs encoding MT1 or MT2 receptors per well. After a 3 hour transfection period at 37° C., 50 μl of DMEM with 20% fetal calf serum (FCS) is added into the wells and the plate is incubated at 37° C. for 48 h prior to 24 hour serum starvation. […]
Cells are harvested by replacing medium in the well by 50 μl luciferase lysis buffer. The Berthold microplate luminometer is maintained at 25° C. throughout the assay. Injector M connected to an empty tube and P connected to the drug tube are set to inject 25 μl of luciferin into appropriate wells. A 1.6 second delay time followed by a 1 second measuring time period is assigned to injector M, whereas injector P is measured for 10 seconds after luciferase substrate is introduced into the well. Results are expressed as relative luminescent units (RLU). Where indicated, agonist-induced activity is expressed as a percentage of the RLU obtained with forskolin.

MT1 receptor [3] = target: T1, MT1 receptor; experiment: ERK phosphorylation assay, MT1; assay type: cell-based; parameters: expressed in transfected cells; details: HEK293 cells; isoquinolone 1 μM or 2-iodomelatonin 100 nM, 5 min; against unstimulated control cells
Text: 3. ERK Phosphorylation Assay This assay indicates the ability of the novel compounds to activate MT1 or MT2 receptors by measuring downstream events of the activated receptor, in this case ERK phosphorylation. The amount of phosphorylated ERK1/2 was detected and quantified in western blots. The data in Table 2 is expressed as the fold stimulation against the unstimulated control cells. 6. Detection of ERK phosphorylation […] Stimulation was terminated by aspiration on ice and immediate lysis by 200 μl of 1× protein gel loading buffer. Lysates were denatured by boiling for 5 min and cooled at room temperature until loading. 30 μl of each lysate was separated on 12% SDS-PAGE and transferred to nitrocellulose membrane by electroblotting. Success of transfer was visualized by Ponceau S staining. All subsequent incubations were under gentle agitation (˜100 strokes/min). […] Primary antisera against phosphorylated- or total-ERK1/2 were incubated with the blocked membrane at an appropriate dilution (1:4000-1:2000) in Blotto for overnight at 4° C. The membrane was washed with fresh Blotto for 3 times of 15 min each, then incubated with secondary antiserum (horseradish peroxidase-conjugated anti-rabbit IgG) at the dilution of 1:1000 in 1×TBS for 1 h at room temperature. The membrane was quickly rinsed with excessive 1×TBS for 3 times, and followed by 4 washes of 1×TBS for 10 min. By the end, a premix of luminol-based chemiluminescence substrate solution was prepared (1 ml for every 8 cm^2 of membrane) and overlaid onto the washed membrane to incubate for 1 min. After removing excessive solution, the membrane was covered with saran wrap and an autograph with appropriate exposure was developed on X-ray film in dark room. The image was scanned and the band intensities quantified using ImageJ 1.34. Data was expressed as the percentage response of the vehicle-treated or untreated samples. Experiments were performed at least 3 times and the average responses±SEM were presented.

T1 sequence (P48039 whole entry): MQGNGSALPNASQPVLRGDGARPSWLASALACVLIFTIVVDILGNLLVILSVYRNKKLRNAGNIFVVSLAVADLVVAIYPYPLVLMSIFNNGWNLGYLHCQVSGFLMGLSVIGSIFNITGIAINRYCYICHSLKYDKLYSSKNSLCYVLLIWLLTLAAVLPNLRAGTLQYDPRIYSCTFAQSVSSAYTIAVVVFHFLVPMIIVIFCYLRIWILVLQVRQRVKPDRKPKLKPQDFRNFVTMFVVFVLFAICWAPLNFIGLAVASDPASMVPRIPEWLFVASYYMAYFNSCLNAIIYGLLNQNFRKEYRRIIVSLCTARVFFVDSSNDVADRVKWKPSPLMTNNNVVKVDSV

Compound	MTT Assay MT2/293 % Viability ± SEM (MT2/293) [%]	Binding Assay MT1 logIC50 ± SEM (MT1 receptor [1])	CRE-Luc Assay MT1 % Inh ± SEM of 1 μM Fsk (MT1 receptor [2]) [%]	ERK Phosphorylation MT1 Fold Stim. (MT1 receptor [3]) [Fold]
Cn1ccc2cc(OC(=O)c3ccccc3)c(OC(=O)c3ccccc3)cc2c1=O [IS039]	117.6 ± 9.0	NSB	73.0 ± 5.0	2.75
COc1cc(COc2cc3ccn(C)c(=O)c3cc2OC)cc(OC)c1 [IS042]	56.3 ± 1.5	NSB	73.9 ± 7.8	4.94
COc1cccc(COc2cc3ccn(C)c(=O)c3cc2OC)c1 [IS044]	112.5 ± 3.8	NSB	82.3 ± 6.0	3.25
COc1cccc(COc2cc3c(=O)n(C)ccc3cc2OC)c1 [IS521]	90.5 ± 11.7	NSB	84.2 ± 5.5	3.80
COc1cc(COc2cc3c(=O)n(C)ccc3cc2OC)cc(OC)c1 [IS523]	46.2 ± 3.7	NSB	70.4 ± 5.6	3.74
COc1cc2ccn(C)c(=O)c2cc1OCc1ccc(C(C)(C)C)cc1 [IS526]	24.7 ± 1.6	NSB	36.2 ± 11.8	
COc1cccc(COc2c(OC)ccc3c(=O)n(C)ccc23)c1 [IS527]	46.8 ± 0.2	NSB	82.4 ± 6.4	2.47
COc1cc(COc2c(OC)ccc3c(=O)n(C)ccc23)cc(OC)c1 [IS528]	42.4 ± 1.3	NSB	69.7 ± 10.1	1.73
COc1ccc2c(=O)n(C)ccc2c1OCc1ccc(C)cc1 [IS529]	48.5 ± 1.6	NSB	67.7 ± 5.4	2.37
